Experimental data published in patent US12491170B2, “Stable treprostinil prodrugs” (United Therapeutics Corporation, priority 2020, dated 2025).

assay: Stability in cryopreserved hepatocytes, dog; settings: not given

Row | Compound | Trep Concentration (μM) 0 min [µM] | Trep Concentration (μM) 15 min [µM] | Trep Concentration (μM) 30 min [µM] | Trep Concentration (μM) 60 min [µM] | Trep Concentration (μM) 120 min [µM]
1 | CCCCCC(CCC1C(O)CC2Cc3c(cccc3OCC(=O)O)CC21)OC(=O)COc1ccc(O)cc1 (stereo not drawn) [LIV] | 0.00351 | 0.295 | 0.273 | 0.262 | 0.262
2 | CCCCCC(CCC1C(O)CC2Cc3c(cccc3OCC(=O)O)CC21)OC(=O)CC (stereo not drawn) [LV] | 0.124 | – | 0.698 | 0.599 | 0.53

same assay, conditions: dog

Row | Compound | AUC [µmol·min/L]
3 | CCCCCC(CCC1C(O)CC2Cc3c(cccc3OCC(=O)O)CC21)OC(=O)COc1ccc(O)cc1 (stereo not drawn) [LIV] | 30.24
4 | CCCCCC(CCC1C(O)CC2Cc3c(cccc3OCC(=O)O)CC21)OC(=O)CC (stereo not drawn) [LV] | 71.21

assay: Stability in liver microsomes, rat; settings: not given

Row | Compound | Trep Concentration 0 min [µM] | Trep Concentration 10 min [µM] | Trep Concentration 20 min [µM] | Trep Concentration 30 min [µM] | Trep Concentration 60 min [µM]
5 | CCCCCC(CCC1C(O)CC2Cc3c(cccc3OCC(=O)O)CC21)OC(=O)COc1ccc(O)cc1 (stereo not drawn) [LIV] | 0.849 | 0.784 | 0.765 | 0.709 | 0.811
6 | CCCCCC(CCC1C(O)CC2Cc3c(cccc3OCC(=O)O)CC21)OC(=O)CC (stereo not drawn) [LV] | 0.26 | 0.43 | 0.525 | 0.586 | 0.553

assay: Stability in cryopreserved hepatocytes, human; settings: not given

Row | Compound | Trep Concentration (μM) 0 min [µM] | Trep Concentration (μM) 15 min [µM] | Trep Concentration (μM) 30 min [µM] | Trep Concentration (μM) 60 min [µM] | Trep Concentration (μM) 120 min [µM]
7 | CCCCCC(CCC1C(O)CC2Cc3c(cccc3OCC(=O)O)CC21)OC(=O)COc1ccc(O)cc1 (stereo not drawn) [LIV] | 0.0156 | 0.58 | 0.47 | 0.475 | 0.461
8 | CCCCCC(CCC1C(O)CC2Cc3c(cccc3OCC(=O)O)CC21)OC(=O)CC (stereo not drawn) [LV] | 0.113 | 0.725 | 0.654 | 0.589 | 0.527

same assay, conditions: human

Row | Compound | AUC [µmol·min/L]
9 | CCCCCC(CCC1C(O)CC2Cc3c(cccc3OCC(=O)O)CC21)OC(=O)COc1ccc(O)cc1 (stereo not drawn) [LIV] | 54.60
10 | CCCCCC(CCC1C(O)CC2Cc3c(cccc3OCC(=O)O)CC21)OC(=O)CC (stereo not drawn) [LV] | 68.75

assay: not given; settings: rat

Row | Compound | AUC [µmol·min/L]
11 | CCCCCC(CCC1C(O)CC2Cc3c(cccc3OCC(=O)O)CC21)OC(=O)COc1ccc(O)cc1 (stereo not drawn) [LIV] | 46.08
12 | CCCCCC(CCC1C(O)CC2Cc3c(cccc3OCC(=O)O)CC21)OC(=O)CC (stereo not drawn) [LV] | 30.87

assay: Stability in human subcutaneous skin homogenate; settings: not given

Row | Compound | Trep Concentration 0 min [µM] | Trep Concentration 30 min [µM] | Trep Concentration 60 min [µM] | Trep Concentration 120 min [µM]
13 | CCCCCC(CCC1C(O)CC2Cc3c(cccc3OCC(=O)O)CC21)OC(=O)COc1ccc(O)cc1 (stereo not drawn) [LIV] | 0 | 0.486 | 0.694 | 0.848
14 | CCCCCC(CCC1C(O)CC2Cc3c(cccc3OCC(=O)O)CC21)OC(=O)CC (stereo not drawn) [LV] | 0.0045 | 0.545 | 0.741 | 0.954

same assay, conditions: human

Row | Compound | AUC [µmol·min/L]
15 | CCCCCC(CCC1C(O)CC2Cc3c(cccc3OCC(=O)O)CC21)OC(=O)COc1ccc(O)cc1 (stereo not drawn) [LIV] | 71.25
16 | CCCCCC(CCC1C(O)CC2Cc3c(cccc3OCC(=O)O)CC21)OC(=O)CC (stereo not drawn) [LV] | 78.38

assay: Stability in liver microsomes, human; settings: not given

Row | Compound | Trep Concentration 0 min [µM] | Trep Concentration 10 min [µM] | Trep Concentration 20 min [µM] | Trep Concentration 30 min [µM] | Trep Concentration 60 min [µM]
17 | CCCCCC(CCC1C(O)CC2Cc3c(cccc3OCC(=O)O)CC21)OC(=O)COc1ccc(O)cc1 (stereo not drawn) [LIV] | 0.908 | 0.679 | 0.564 | 0.463 | 0.338
18 | CCCCCC(CCC1C(O)CC2Cc3c(cccc3OCC(=O)O)CC21)OC(=O)CC (stereo not drawn) [LV] | 1.17 | 1.01 | 0.837 | 0.736 | 0.389

same assay, conditions: human

Row | Compound | AUC [µmol·min/L]
19 | CCCCCC(CCC1C(O)CC2Cc3c(cccc3OCC(=O)O)CC21)OC(=O)COc1ccc(O)cc1 (stereo not drawn) [LIV] | 31.30
20 | CCCCCC(CCC1C(O)CC2Cc3c(cccc3OCC(=O)O)CC21)OC(=O)CC (stereo not drawn) [LV] | 44.88

assay: Stability in liver microsomes, dog; settings: not given

Row | Compound | Trep Concentration 0 min [µM] | Trep Concentration 10 min [µM] | Trep Concentration 20 min [µM] | Trep Concentration 30 min [µM] | Trep Concentration 60 min [µM]
21 | CCCCCC(CCC1C(O)CC2Cc3c(cccc3OCC(=O)O)CC21)OC(=O)COc1ccc(O)cc1 (stereo not drawn) [LIV] | 0.307 | 0.544 | 0.678 | 0.729 | 0.777
22 | CCCCCC(CCC1C(O)CC2Cc3c(cccc3OCC(=O)O)CC21)OC(=O)CC (stereo not drawn) [LV] | 0.971 | 0.961 | 0.934 | 0.915 | 0.743

assay: not given; settings: dog

Row | Compound | AUC [µmol·min/L]
23 | CCCCCC(CCC1C(O)CC2Cc3c(cccc3OCC(=O)O)CC21)OC(=O)COc1ccc(O)cc1 (stereo not drawn) [LIV] | 39.99
24 | CCCCCC(CCC1C(O)CC2Cc3c(cccc3OCC(=O)O)CC21)OC(=O)CC (stereo not drawn) [LV] | 53.25

assay: Stability in cryopreserved hepatocytes, rat; settings: not given

Row | Compound | Trep Concentration (μM) 0 min [µM] | Trep Concentration (μM) 15 min [µM] | Trep Concentration (μM) 30 min [µM] | Trep Concentration (μM) 60 min [µM] | Trep Concentration (μM) 120 min [µM]
25 | CCCCCC(CCC1C(O)CC2Cc3c(cccc3OCC(=O)O)CC21)OC(=O)COc1ccc(O)cc1 (stereo not drawn) [LIV] | 0.0862 | 0.512 | 0.426 | 0.441 | 0.455
26 | CCCCCC(CCC1C(O)CC2Cc3c(cccc3OCC(=O)O)CC21)OC(=O)CC (stereo not drawn) [LV] | 0.0159 | 0.506 | 0.48 | 0.424 | 0.391

same assay, conditions: rat

Row | Compound | AUC [µmol·min/L]
27 | CCCCCC(CCC1C(O)CC2Cc3c(cccc3OCC(=O)O)CC21)OC(=O)COc1ccc(O)cc1 (stereo not drawn) [LIV] | 51.41
28 | CCCCCC(CCC1C(O)CC2Cc3c(cccc3OCC(=O)O)CC21)OC(=O)CC (stereo not drawn) [LV] | 49.32
